Data reported in patent publication US20260125359A1, “HETEROARYL COMPOUNDS AS MULTI-TARGET PROTEIN KINASE INHIBITORS” (FUJIAN HAIXI PHARMACEUTICALS CO., LTD., priority 2023, published 2026).

test system: M-NFS-60 cells; test: M-NFS-60 cell in vitro assay (CCK, 48 h, M-CSF factor medium); type: cell-based; settings: M-NFS-60 cells; read-out: M-NFS-60cellassay IC50
Method in brief: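 IC50 values were fitted from CCK absorbance (450 nm, 2 h development) after 48 h compound treatment. Cells: M-NFS-60, seeded 2000/well and rested 4 h, grown in medium carrying 25 ng/ml M-CSF factor plus 10% serum; compounds serially diluted in DMSO.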

First: Cc1cccc(C(=O)Nc2cccc3c2CC[C@@H]3Oc2cncc(-c3cnn(C)c3)c2)c1 [Compound 15, (S)-3-methyl-N-(1-((5-(1-methyl-1H-pyrazol-4-yl)pyridin-3-yl)oxy)-2,3-dihydro-1H-inden-4-yl)benzamide]
Second: Cc1cncc(NC(=O)c2cccc3c2CC[C@@H]3Oc2cncc(-c3cnn(C)c3)c2)c1 [Compound 19j]
The IC50 of the first is higher: 200 to 500 nM for the first, under 50 nM for the second.

`Cc1cncc(NC(=O)c2cccc3c2CC[C@@H]3Nc2cncc(-c3cnn(C)c3)c2)c1` [Compound 14as] and `Cn1cc(-c2cncc(N[C@H]3CCc4c(C(=O)Nc5cncc(Cl)c5)cccc43)c2)cn1` [Compound 14aa, (S)—N-(5-chloropyridin-3-yl)-1-((5-(1-methyl-1H-pyrazol-4-yl)pyridin-3-yl)amino)-2,3-dihydro-1H-indene-4-carboxamide] cannot be ordered by IC50: under 50 nM for the first, under 50 nM for the second.

`CN(c1cncc(-c2cnn(C)c2)c1)[C@H]1CCc2c(C(=O)Nc3cccc(C4CC4)c3)cccc21` [Compound 22a, (S)—N-(3-cyclopropylphenyl)-1-(methyl (5-(1-methyl-1H-pyrazol-4-yl)pyridin-3-yl)amino)-2,3-dihydro-1H-indene-4-carboxamide] and `Cn1cc(-c2cncc(O[C@H]3CCc4c(C(=O)Nc5cccc(C6CC6)c5)cccc43)c2)cn1` [Compound 19b] cannot be ordered by IC50: under 50 nM for the first, under 50 nM for the second.

First: Cn1cc(-c2cncc(N[C@H]3CCc4c(Nc5noc(C(C)(C)C)n5)cccc43)c2)cn1 [Compound 42o]
Second: Cn1cc(-c2cncc(N[C@H]3CCc4c(Nc5cc(C(C)(C)C)on5)cccc43)c2)cn1 [Compound 41, (S)—N^4-(5-(tert-butyl)isoxazol-3-yl)-N^1-(5-(1-methyl-1H-pyrazol-4-yl)pyridin-3-yl)-2,3-dihydro-1H-indene-1,4-diamine]
The IC50 of the first is higher: 50 to 200 nM for the first, under 50 nM for the second.

`Cn1cc2ncc(O[C@H]3CCc4c(C(=O)Nc5nn(C)c6cccc(F)c56)cccc43)cc2n1` [Compound 76aw] and `Cn1cc2ncc(O[C@H]3CCc4c(C(=O)Nc5nn(C)c6ccccc56)cccc43)cc2n1` [Compound 76al] cannot be ordered by IC50: under 50 nM for the first, under 50 nM for the second.

`Cn1ncc2ncc(N[C@H]3CCc4c(Nc5cc(C(C)(C)C)on5)cccc43)nc21` [Compound 86, (S)—N^4-(5-(tert-butyl)isoxazol-3-yl)-N1-(1-methyl-1H-pyrazolo[3,4-b]pyrazin-6-yl)-2,3-dihydro-1H-indene-1,4-diamine] and `Cn1cc(-c2cncc(N[C@H]3CCc4c(C(=O)Nc5nn(C)c6ccccc56)cccc43)n2)cn1` [Compound 27g, (S)—N-(1-methyl-1H-indazol-3-yl)-1-((6-(1-methyl-1H-pyrazol-4-yl)pyrazin-2-yl)amino)-2,3-dihydro-1H-indene-4-carboxamide] cannot be ordered by IC50: under 50 nM for the first, under 50 nM for the second.

Going from `Cn1cc(-c2cncc(O[C@H]3CCc4c(C(=O)Nc5cncc(Cl)c5)cccc43)c2)cn1` [Compound 19a, (S)—N-(5-chloropyridin-3-yl)-1-((5-(1-methyl-1H-pyrazol-4-yl)pyridin-3-yl)oxy)-2,3-dihydro-1H-indene-4-carboxamide] to `CN(C)Cc1cncc(NC(=O)c2cccc3c2CC[C@@H]3Oc2cncc(-c3cnn(C)c3)c2)c1` [Compound 19h], the IC50 rises from under 50 nM to over 500 nM. The first is the more potent here.

`Cn1ncc2ncc(O[C@H]3CCc4c(C(=O)Nc5cncc(Cl)c5)cccc43)cc21` [Compound 76ac, (S)—N-(5-chloropyridin-3-yl)-1-((1-methyl-1H-pyrazolo[4,3-b]pyridin-6-yl)oxy)-2,3-dihydro-1H-indene-4-carboxamide] and `Cn1cc2ncc(O[C@H]3CCc4c(C(=O)Nc5cncc(Cl)c5)cccc43)cc2n1` [Compound 76ai] cannot be ordered by IC50: under 50 nM for the first, under 50 nM for the second.

First: Cc1cc(NC(=O)c2cccc3c2CC[C@@H]3Oc2cncc(-c3cnn(C)c3)c2)cc(C)n1 [Compound 19k, (S)—N-(2,6-dimethylpyridin-4-yl)-1-((5-(1-methyl-1H-pyrazol-4-yl)pyridin-3-yl)oxy)-2,3-dihydro-1H-indene-4-carboxamide]
Second: CN1CCc2nc(NC(=O)c3cccc4c3CC[C@@H]4Oc3cncc(-c4cnn(C)c4)c3)sc2C1 [Compound 19f]
The IC50 of the first is lower: under 50 nM for the first, 50 to 200 nM for the second. The first is the more potent here.

`Cn1cc(-c2cncc(N[C@H]3CCc4c(C(=O)Nc5ccc(C(F)(F)F)nc5)cccc43)c2)cn1` [Compound 14ah] and `Cc1cccc(NC(=O)c2cccc3c2CC[C@@H]3Nc2cncc(-c3cnn(C)c3)c2)c1` [Compound 13, (S)-1-((5-(1-methyl-1H-pyrazol-4-yl)pyridin-3-yl)amino)-N-(m-tolyl)-2,3-dihydro-1H-indene-4-carboxamide] cannot be ordered by IC50: under 50 nM for the first, under 50 nM for the second.

`Cn1ncc2ncc(N[C@H]3CCc4c(C(=O)Nc5cccc(C6CC6)c5)cccc43)cc21` [Compound 73, (S)—N-(3-cyclopropylphenyl)-1-((1-methyl-1H-pyrazolo[4,3-b]pyridin-6-yl)amino)-2,3-dihydro-1H-indene-4-carboxamide] and `Cn1cc(-c2cnc(N)c(O[C@H]3CCc4c(C(=O)Nc5cccc(C6CC6)c5)cccc43)c2)cn1` [Compound 4, (S)-1-((2-amino-5-(1-methyl-1H-pyrazol-4-yl)pyridin-3-yl)oxy)-N-(3-cyclopropylphenyl)-2,3-dihydro-1H-indene-4-carboxamide] cannot be ordered by IC50: under 50 nM for the first, under 50 nM for the second.

Compared with `CN(c1cnc2cn(C)nc2c1)[C@H]1CCc2c(C(=O)Nc3cncc(Cl)c3)cccc21` [Compound 80k], `CN(c1cncc(-c2cnn(C)c2)c1)[C@H]1CCc2c(C(=O)Nc3cncc(Cl)c3)cccc21` [Compound 21, (S)—N-(5-chloropyridin-3-yl)-1-(methyl (5-(1-methyl-1H-pyrazol-4-yl)pyridin-3-yl)amino)-2,3-dihydro-1H-indene-4-carboxamide] is higher in IC50: under 50 nM for the first, 50 to 200 nM for the second. The first is the more potent here.

`CN1CCc2ccc(NC(=O)c3cccc4c3CC[C@@H]4Nc3cncc(-c4cnn(C)c4)c3)cc2C1` [Compound 14ap] and `CN1CCc2nc(NC(=O)c3cccc4c3CC[C@@H]4Nc3cncc(-c4cnn(C)c4)c3)sc2C1` [Compound 14ba] cannot be ordered by IC50: under 50 nM for the first, under 50 nM for the second.

`Cc1cccc(NC(=O)c2cccc3c2CC[C@@H]3Oc2cnc3cn(C)nc3c2)n1` [Compound 76bd] and `CN(c1cnc2cn(C)nc2c1)[C@H]1CCc2c(C(=O)Nc3nn(C)c4ccccc34)cccc21` [Compound 80l] cannot be ordered by IC50: under 50 nM for the first, under 50 nM for the second.

With `Cn1cc2ncc(N[C@H]3CCc4c(C(=O)Nc5nc(C6CC6)cs5)cccc43)cc2n1` [Compound 74h, (S)—N-(4-cyclopropylthiazol-2-yl)-1-((2-methyl-2H-pyrazolo[4,3-b]pyridin-6-yl)amino)-2,3-dihydro-1H-indene-4-carboxamide] the IC50 was under 50 nM.
